Experimental data as given in US12310967B2, “Compositions and methods of treatment for neurological disorders comprising motor neuron diseases” (Gliapharm SA, priority 2017, dated 2025).

Columns and labels:
[1] = system: primary astrocytes; assay: Intracellular glycogen quantification; type: cell-based, mouse; conditions: CDC54K hits, 10 μM, 3 h
Protocol: For glycogen dosage, a protein dosage was first performed in order to assess whether harvested astrocytes from primary cell cultures yielded enough and equivalent amounts of proteins comparing each replicate, and to ensure that the obtained differences in glycogen quantities were due to drug action and not to inner protein quantities.
Astrocytes used for these dosages were previously grown in 6-well plates for 17 days and stimulated with Vehicle (DMSO) or drug of interest (1 μM to 100 μM) for 180 min, at 37° C. 5% CO2/95% air in D5030 complete medium. Medium was removed and replaced with 600 μl of 30 mM Tris HCl, and stored at −20° C.
Proteins were dosed using the micro BCA Protein Assay kit (Thermo Scientific), as described in the manufacturer's instructions. Briefly, thawed cells were sonicated and 5 μl aliquots were placed in a transparent 96-well plate, to which we added 25 μl 30 mM Tris HCl, 70 μl H2O and 100 μl of a BCA mix (made as described in manufacturer's guidelines). After a 120 min-incubation at 37° C., absorbance was measured with Safire 2 spectrophotometer at a wavelength of 562 nm, and protein quantities were determined from a standard curve of Bovine Serum Albumin (BSA).
Glycogen was quantified using a 250 μl-aliquot of the same stimulated, thawed, and sonicated cells. After an incubation period of 30 min at 90° C. and 400 rpm, 28 μl of an acetic acid/sodium acetate (both from Sigma) 0.1M pH 4.6 buffer was added to each aliquot, which was then separated in two. Each split aliquot received whether 5 μl of amyloglucosidase (Roche) or 5 μl H2O, and all cell solutions were incubated for 120 min in a shaking 37° C.-waterbath. After a centrifugation at 16'000G for 5 min, 20 μl of supernatant were placed 96-well plate, to which 150 μl of a mix containing 0.67 mM ATP (Roche), 0.67 mM NADP (Roche), 1.8% hexokinase/glucose-6-phosphate dehydrogenase (Roche) and 0.1M Tris Buffer-HCl/3.3 mM magnesium (Fluka)/pH 8.1 buffer was added. Fluorescence was measured with Safire 2 spectrophotometer (340 nm excitation/440 nm emission). Glycogen concentration was obtained by substracting glucose value of samples with amyloglucosidase to samples without amyloglucosidase, and were expressed relative to the amount of proteins previously determined.
Levels of intracellular glycogen in astrocytes were measured at 3 h after stimulation with 20 Hits from the Prestwick library (10 μM each), as shown in FIG. 2. n=6-10; Ctrl pos. is glutamate (0.5 mM). Statistical analysis consisted in ANOVA followed by Fisher LSD post-hoc test for pair-wise comparisons.
Statistical analysis consisted in ANOVA followed by Fisher LSD post-hoc test for pair-wise comparisons.

[2] = system: primary astrocytes; assay: High throughput screening (HTS) for lactate secretion: acidification of extracellular medium (SNARF5); type: cell-based, mouse; parameters: key to Score / HTS Score (SNARF5) / Score_SNARF: fraction of plate positive-control activity (1 = 100%); conditions: for Score / Score_SNARF: Appendix I; for Score: CDC54K primary screening, relative to CCCP 2 uM; for Score / HTS Score (SNARF5): 10 uM, 90 min; for Score_SNARF: primary screening confirmation (SNARF5); for HTS Score (SNARF5): CDC54K library, relative to positive control CCCP 2 uM
In short: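 Mouse primary cortical astrocytes (DIV17) exposed to compounds at 10 uM final (1% DMSO) for 90 min in low-bicarbonate medium with SNARF-5F. Extracellular pH from 630/580 nm emission ratio (ex 480 nm); hits scored as % of CCCP 2 uM positive control, duplicate plates.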

## Cc1ccccc1NC(=O)C1CCCN(c2ncnc3oc(C)c(C)c23)C1 (stereo not drawn) [F228-0422]
[1]
  Glycogen (statistical significance of glycogen degradation): ** (** p<0.01)
[2]
  Score: 1.057
  Score_SNARF: 0.7702
  HTS Score (SNARF5): 1.058

## CCc1nc(-c2csc(S(=O)(=O)NCc3ccc4c(c3)OCO4)c2)no1 [L287-0468]
[1]
  Glycogen (statistical significance of glycogen degradation): ** (** p<0.01)
[2]
  Score: 0.5971
  Score_SNARF: 0.6592
  HTS Score (SNARF5): 0.597

## CCn1nccc1-c1csc(S(=O)(=O)Nc2ccc(Cl)cc2F)c1 [L924-1031]
[1]
  Glycogen (statistical significance of glycogen degradation): ** (** p<0.01)
[2]
  Score: 0.9286
  Score_SNARF: 0.8713
  HTS Score (SNARF5): 0.929

## CSc1cccc(NS(=O)(=O)c2ccc3onc(C(=O)N4CCCC4)c3c2)c1 [L995-0125]
[1]
  Glycogen (statistical significance of glycogen degradation): ns
[2]
  Score: 0.8545
  Score_SNARF: 0.8016
  HTS Score (SNARF5): 0.854

## CC(=O)N1CCc2sc(S(=O)(=O)N3CCN(c4ccccc4C)CC3)cc2C1 [P025-0159]
[1]
  Glycogen (statistical significance of glycogen degradation): ns
[2]
  Score: 0.9535
  Score_SNARF: 0.8007
  HTS Score (SNARF5): 0.953

## c1ccc2c(c1)CCN(c1ncnc3sccc13)C2 [T0517-8250]
[1]
  Glycogen (statistical significance of glycogen degradation): ns
[2]
  Score_SNARF: 0.9124

## N#Cc1ccc(C(=O)N2CCC(Nc3ncnc4c3CCC4)C2)cc1 (stereo not drawn) [T636-2387]
[1]
  Glycogen (statistical significance of glycogen degradation): ns
[2]
  Score_SNARF: 0.4809
  HTS Score (SNARF5): 0.445

## CCc1ccc(S(=O)(=O)N2CCSC2c2ccc(OC)c(OC)c2)cc1 (stereo not drawn) [T5463586]
[1]
  Glycogen (statistical significance of glycogen degradation): *** (*** p<0.001)
[2]
  Score: 0.7707
  Score_SNARF: 0.5553
  HTS Score (SNARF5): 0.77

## COc1cc(C)c(Cl)cc1S(=O)(=O)NCc1ccncc1 [T5580243]
[1]
  Glycogen (statistical significance of glycogen degradation): ns
[2]
  Score: 0.8528
  Score_SNARF: 0.8565
  HTS Score (SNARF5): 0.853

## CCc1ccc(S(=O)(=O)Nc2ccc3[nH]ncc3c2)cc1 [T5599014]
[1]
  Glycogen (statistical significance of glycogen degradation): ns
[2]
  Score: 0.5424
  Score_SNARF: 0.5778
  HTS Score (SNARF5): 0.542

## O=C1CCCN1c1ccc(S(=O)(=O)Nc2cccc(/C=C/c3ccccn3)c2)cc1 [T5644989]
[1]
  Glycogen (statistical significance of glycogen degradation): ** (** p<0.01)
[2]
  Score: 0.6796
  Score_SNARF: 0.8385
  HTS Score (SNARF5): 0.68

## Cc1nc2ccc(NS(=O)(=O)c3cccc(F)c3)cc2s1 [T6937001]
[1]
  Glycogen (statistical significance of glycogen degradation): ns
[2]
  Score: 0.8094
  Score_SNARF: 0.8557
  HTS Score (SNARF5): 0.809
